Values joined by “and” are separate entries in the source; they are usually repeats but may differ in a detail not shown here. Identical values can stand only once.
Test system: HEK293 cells
Experiment: Endogenous ceramide, HexCer and SM levels in cells treated 24 h, targeted LC-MS/MS
Format: cell-based
Settings: HEK293 cells, 24 h
Experimental: Lipids were then extracted using MTBE/methanol/water as described above.
HEK293 cell culture experiment: Levels of each lipid in P053-treated HEK293 cells were normalised to the mean of the vehicle control group, and each concentration was compared to the control using ANOVA with Dunnett’s post-test. P values were adjusted for multiple comparisons in GraphPad PRISM.
Supplementary Figure 1. Ceramide, SM, and HexCer levels in HEK293 cells treated with
P053. Absolute lipid levels were determined by targeted LC-MS/MS, relative to external
standard curves. Results are mean ± SEM (n = 4) from one of two identical experiments.
Statistically significant results, based on two independent experiments, are as indicated in
Figure 2b-d. Raw data for these figures is provided in Supplementary Data File 1.

SMILES: C[C@@](N)(CO)CCc1ccc(OCc2ccc(Cl)c(Cl)c2)cc1 [P053, (S)-2-amino-4-(4-(3,4-dichlorobenzyloxy)phenyl)-2-methylbutan-1-ol]
- 16:0 Cer level (P053 100 nM): 93.0789 percentage of the vehicle control group and 87.8624 percentage of the vehicle control group and 90.7567 percentage of the vehicle control group and 99.4946 percentage of the vehicle control group and 119.082 percentage of the vehicle control group and 99.8119 percentage of the vehicle control group and 116.788 percentage of the vehicle control group and 98.8463 percentage of the vehicle control group
- 16:0 HexCer level (P053 100 nM): 72.1291 percentage of the vehicle control group and 81.3101 percentage of the vehicle control group and 75.1757 percentage of the vehicle control group and 88.1626 percentage of the vehicle control group and 92.7296 percentage of the vehicle control group and 94.3662 percentage of the vehicle control group and 88.291 percentage of the vehicle control group and 103.879 percentage of the vehicle control group
- 16:0 SM level (P053 100 nM): 96.6683 percentage of the vehicle control group and 97.496 percentage of the vehicle control group and 96.0726 percentage of the vehicle control group and 98.7215 percentage of the vehicle control group and 93.8292 percentage of the vehicle control group and 95.9275 percentage of the vehicle control group and 94.8581 percentage of the vehicle control group and 102.543 percentage of the vehicle control group
- 16:1 SM level (P053 100 nM): 104.314 percentage of the vehicle control group and 87.7756 percentage of the vehicle control group and 92.2071 percentage of the vehicle control group and 111.506 percentage of the vehicle control group and 103.607 percentage of the vehicle control group and 109.147 percentage of the vehicle control group and 99.9145 percentage of the vehicle control group and 113.03 percentage of the vehicle control group
- 18:0 Cer level (P053 100 nM): 51.8361 percentage of the vehicle control group and 34.0436 percentage of the vehicle control group and 43.3209 percentage of the vehicle control group and 47.0876 percentage of the vehicle control group and 49.1716 percentage of the vehicle control group and 60.878 percentage of the vehicle control group and 53.1013 percentage of the vehicle control group and 34.6023 percentage of the vehicle control group
- 18:0 HexCer level (P053 100 nM): 26.076 percentage of the vehicle control group and 45.6733 percentage of the vehicle control group and 33.7976 percentage of the vehicle control group and 35.7543 percentage of the vehicle control group and 29.3831 percentage of the vehicle control group and 38.4787 percentage of the vehicle control group and 45.094 percentage of the vehicle control group and 48.7 percentage of the vehicle control group
- 18:0 SM level (P053 100 nM): 58.3863 percentage of the vehicle control group and 60.4391 percentage of the vehicle control group and 60.0968 percentage of the vehicle control group and 58.0444 percentage of the vehicle control group and 61.8417 percentage of the vehicle control group and 67.9073 percentage of the vehicle control group and 68.1366 percentage of the vehicle control group and 74.9383 percentage of the vehicle control group
- 18:1 SM level (P053 100 nM): 67.1121 percentage of the vehicle control group and 61.0781 percentage of the vehicle control group and 66.2487 percentage of the vehicle control group and 67.0185 percentage of the vehicle control group and 69.283 percentage of the vehicle control group and 68.5826 percentage of the vehicle control group and 71.1925 percentage of the vehicle control group
- 20:0 Cer level (P053 100 nM): 85.7665 percentage of the vehicle control group and 109.856 percentage of the vehicle control group and 101.721 percentage of the vehicle control group and 86.1177 percentage of the vehicle control group and 103.673 percentage of the vehicle control group and 96.5034 percentage of the vehicle control group and 78.6868 percentage of the vehicle control group
- 22:0 Cer level (P053 100 nM): 109.852 percentage of the vehicle control group and 94.2148 percentage of the vehicle control group and 84.7703 percentage of the vehicle control group and 98.1236 percentage of the vehicle control group and 119.57 percentage of the vehicle control group and 118.497 percentage of the vehicle control group and 136.979 percentage of the vehicle control group and 110.794 percentage of the vehicle control group
- 22:0 HexCer level (P053 100 nM): 96.8671 percentage of the vehicle control group and 87.3308 percentage of the vehicle control group and 81.4727 percentage of the vehicle control group and 94.5887 percentage of the vehicle control group and 107.975 percentage of the vehicle control group and 124.49 percentage of the vehicle control group and 104.798 percentage of the vehicle control group and 129.338 percentage of the vehicle control group
- 22:0 SM level (P053 100 nM): 88.1464 percentage of the vehicle control group and 112.339 percentage of the vehicle control group and 83.7907 percentage of the vehicle control group and 79.4494 percentage of the vehicle control group and 115.966 percentage of the vehicle control group and 112.687 percentage of the vehicle control group and 121.861 percentage of the vehicle control group and 131.998 percentage of the vehicle control group
- 22:1 SM level (P053 100 nM): 110.7 percentage of the vehicle control group and 102.614 percentage of the vehicle control group and 109.89 percentage of the vehicle control group and 108.27 percentage of the vehicle control group and 108.462 percentage of the vehicle control group and 113.237 percentage of the vehicle control group and 107.396 percentage of the vehicle control group and 108.45 percentage of the vehicle control group
- 24:0 HexCer level (P053 100 nM): 91.3427 percentage of the vehicle control group and 87.2698 percentage of the vehicle control group and 81.8027 percentage of the vehicle control group and 92.8624 percentage of the vehicle control group and 100.187 percentage of the vehicle control group and 107.186 percentage of the vehicle control group and 106.263 percentage of the vehicle control group and 116.702 percentage of the vehicle control group
- 24:0 SM level (P053 100 nM): 117 percentage of the vehicle control group and 90.9141 percentage of the vehicle control group and 93.8706 percentage of the vehicle control group and 115.93 percentage of the vehicle control group and 114.197 percentage of the vehicle control group and 134.57 percentage of the vehicle control group and 140.981 percentage of the vehicle control group
- 24:1 Cer level (P053 100 nM): 110.817 percentage of the vehicle control group and 85.3956 percentage of the vehicle control group and 97.052 percentage of the vehicle control group and 96.6841 percentage of the vehicle control group and 128.871 percentage of the vehicle control group and 121.829 percentage of the vehicle control group and 142.778 percentage of the vehicle control group and 120.748 percentage of the vehicle control group
- 24:1 HexCer level (P053 100 nM): 91.7407 percentage of the vehicle control group and 95.5309 percentage of the vehicle control group and 96.8003 percentage of the vehicle control group and 101.48 percentage of the vehicle control group and 104.186 percentage of the vehicle control group and 105.129 percentage of the vehicle control group and 100.754 percentage of the vehicle control group and 113.013 percentage of the vehicle control group
- 24:1 SM level (P053 100 nM): 111.218 percentage of the vehicle control group and 94.5875 percentage of the vehicle control group and 99.337 percentage of the vehicle control group and 100.942 percentage of the vehicle control group and 110.843 percentage of the vehicle control group and 105.998 percentage of the vehicle control group and 112.241 percentage of the vehicle control group and 112.423 percentage of the vehicle control group
- 14:0 SM level (P053 300 nM): 100.258 percentage of the vehicle control group and 95.2604 percentage of the vehicle control group and 95.8152 percentage of the vehicle control group and 99.1466 percentage of the vehicle control group and 109.96 percentage of the vehicle control group and 116.62 percentage of the vehicle control group and 129.695 percentage of the vehicle control group
- 16:0 Cer level (P053 300 nM): 91.1433 percentage of the vehicle control group and 77.1433 percentage of the vehicle control group and 90.5634 percentage of the vehicle control group and 83.6347 percentage of the vehicle control group and 92.4764 percentage of the vehicle control group and 98.9865 percentage of the vehicle control group and 90.2518 percentage of the vehicle control group
- 16:0 HexCer level (P053 300 nM): 76.4857 percentage of the vehicle control group and 73.433 percentage of the vehicle control group and 81.5302 percentage of the vehicle control group and 81.9705 percentage of the vehicle control group and 86.9585 percentage of the vehicle control group and 88.1949 percentage of the vehicle control group and 93.4284 percentage of the vehicle control group

Reference: PMC6104039 (Nature Communications, 2018)
